The values below come from BindingDB's records for patent US20240025892 (The General Hospital, 2024).

The target of the test is Serine/threonine-protein kinase SIK2 (Homo sapiens, UniProt Q9H0K1). In words: In Vitro SIK2 Kinase Assay. How it is done: Assays were performed in base reaction buffer (20 mM Hepes (pH 7.5), 10 mM MgCl2, 1 mM EGTA, 0.02% Brij35, 0.02 mg/mL BSA, 0.1 mM Na3VO4, 2 mM DTT, 1% DMSO). Compounds were dissolved in 100% DMSO in a 10 mM stock. Serial dilution was conducted by Integra Viaflo Assist in DMSO. […] The substrate used was pAMARA at a concentration of 0.2 mg/mL. Kinase assays were supplemented with 2 mM Mn2+, and 1 μM ATP was added. Assays were performed for 20 minutes at room temperature, after which time 33P-ATP (10 μCi/μL) was added followed by incubation for another 120 minutes at room temperature. Thereafter, radioactivity incorporated into the […] peptide substrate was detected by filter-binding method. Kinase activity data were expressed as the percent remaining kinase activity in test samples compared to DMSO reactions. IC50 values and curve fits were obtained using Prism (GraphPad Software).
Sequence of Serine/threonine-protein kinase SIK2 (Q9H0K1 whole entry): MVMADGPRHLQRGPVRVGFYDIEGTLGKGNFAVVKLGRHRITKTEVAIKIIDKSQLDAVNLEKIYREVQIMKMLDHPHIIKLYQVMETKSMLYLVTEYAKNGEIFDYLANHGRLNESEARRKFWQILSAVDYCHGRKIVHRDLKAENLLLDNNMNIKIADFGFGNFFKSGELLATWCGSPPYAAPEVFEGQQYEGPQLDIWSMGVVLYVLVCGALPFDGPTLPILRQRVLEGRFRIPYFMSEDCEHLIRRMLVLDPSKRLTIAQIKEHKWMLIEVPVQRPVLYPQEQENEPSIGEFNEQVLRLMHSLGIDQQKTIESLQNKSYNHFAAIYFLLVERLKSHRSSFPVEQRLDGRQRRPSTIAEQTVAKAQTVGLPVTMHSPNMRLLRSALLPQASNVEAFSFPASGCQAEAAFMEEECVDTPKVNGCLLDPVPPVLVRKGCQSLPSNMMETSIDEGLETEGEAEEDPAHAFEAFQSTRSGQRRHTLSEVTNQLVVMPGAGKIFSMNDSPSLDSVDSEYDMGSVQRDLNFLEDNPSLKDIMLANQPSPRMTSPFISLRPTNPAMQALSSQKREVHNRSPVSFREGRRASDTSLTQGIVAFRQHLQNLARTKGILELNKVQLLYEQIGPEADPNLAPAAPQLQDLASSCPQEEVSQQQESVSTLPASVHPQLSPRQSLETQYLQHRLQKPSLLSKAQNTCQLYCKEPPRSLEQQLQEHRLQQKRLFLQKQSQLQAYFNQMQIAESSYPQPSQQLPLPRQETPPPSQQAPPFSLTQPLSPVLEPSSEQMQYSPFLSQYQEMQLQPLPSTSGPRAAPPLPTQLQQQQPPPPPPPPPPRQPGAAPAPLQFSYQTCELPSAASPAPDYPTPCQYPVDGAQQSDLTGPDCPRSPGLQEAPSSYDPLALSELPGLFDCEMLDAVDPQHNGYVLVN

`N#Cc1ccc(-n2cnc3cc(C(=O)NCc4cccnc4)ccc32)cc1` [US20240025892, Example 32] yielded an IC50 of 0.148 µM.

The term IC50 denotes the concentration at which inhibition is half-maximal. Lower therefore signals higher potency.
